Read-outs that look alike come from different tables or passages of the source.
What was measured:
[1] = background statement; cited from earlier work
[2] = parameters: species or system mice; conditions: mouse, in vivo
Method: Mice were injected intramuscularly with 200 mg/kg of an atovaquone nanoformulation. At intervals blood was harvested (microtainer tubes, BD Biosciences), centrifuged (1300×g, 10 min, 4° C.), and plasma was collected and stored at −80° C. until use. The nanoformulations tested were ACS_ATQ_7 and ACS_ATQ_8.
The concentration of atovaquone in the plasma was assayed by UPLC-MS/MS. Briefly, acetonitrile and deuterated atovaquone internal standard were added to 25 μL of thawed plasma, followed by filtration (Captiva filtration plate, Agilent Technologies). A 5 μL aliquot was separated on a reverse phase column and atovaquone was monitored by triple-quadrupole API4000 (SCIEX, Framingham, Mass., USA) mass analyzer with electrospray ionization. The assay was validated to FDA guidelines for 250-50,000 ng/mL. Values between 250 and 77 ng/mL (the limit of detection) were interpreted conservatively.

[3] = Atovaquone release by Rapid Equilibrium Dialysis (RED) in Simulated Interstitial Fluid; format: physicochemical; conditions: initial 6-hour period, SIF, 1 mg/mL atovaquone, 37° C.
Method: The release rate of atovaquone from solid compositions thereof in accordance with the invention, alongside an equivalent unformulated preparation of atovaquone, was assessed using Rapid Equilibrium Dialysis (RED) (ThermoFisher Scientific). The eleven ‘hit’ formulations were dispersed in Simulated Interstitial Fluid (SIF) and subsequently diluted to 1 mg/mL of atovaquone. The SIF consisted of 35 mg/mL bovine serum albumin (BSA) and 2 mg/mL γ-Globulin derived from bovine blood and dissolved in distilled water. Unformulated atovaquone was initially dissolved in DMSO prior to dilution with SIF, such that the DMSO volume was <1% of the total volume. […] Following incubation, 4 mL ultima gold liquid scintillation cocktail fluid (Meridian Biotechnologies, UK) was added to each 0.1 mL sample and radioactivity was determined as disintegrations per minute (DPM) using a Perkin Elmer 3100TS scintillation counter. Data is expressed as the amount of atovaquone released and diffused across the membrane as a percentage of the starting donor amount, in triplicate, for each of the eleven hit formulations as compared to unformulated atovaquone, as shown in FIGS. 3A-3K (error bars are ±1 S.D.) and FIG. 4 (release after 24 hours) (error bars are ±1 S.D.). […]

[4] = in vivo
[5] = humans; known value; cited from earlier work
[6] = orally dosed; mice; known value; cited from earlier work

- plasma concentration of atovaquone that correlates with successful prophylaxis [2]: > 200 ng/mL
- Release Rate ([3]; Table 3): 0.006 h⁻¹
- Release Rate ([3]; different loadings, Table 7): 0.0060 h⁻¹
- disposition of atovaquone in humans relative to mice [4]: approximately eight
SMILES: O=C1C(O)=C([C@H]2CC[C@H](c3ccc(Cl)cc3)CC2)C(=O)c2ccccc21 [atovaquone]
- lipophilicity [1]: highly lipophilic
- solubility in water [1]: practically insoluble
- plasma half-life [5]: 70 h
- plasma half-life [6]: 9 h
